Data published in patent publication US11459315B2, “Modulators of methyl modifying enzymes, compositions and uses thereof” (Constellation Pharmaceuticals, Inc., priority 2017, dated 2022).
Read-outs that look alike come from different tables or passages of the source.

Experiments:
PRC2 containing wt EZH2 = PRC2 containing wt EZH2 (Homo sapiens (Human), UniProt Q15910); assay: EZH2 biochemical assay (IC50), 3H-SAM incorporation into biotinylated H3 peptide
Protocol: EZH2 biochemical assay (IC50): Compound potencies were assessed through incorporation of ^3H-SAM into a biotinylated H3 peptide. Specifically, 30 pM PRC2 containing wt EZH2 (pentameric complex prepared in-house) was pre-incubated with 450 nM SAM, 450 nM ^3H-SAM, 2 μM H3K27me3 activating peptide (H2N-[…](Kme3)[…]-amide) and compounds (as 10 point duplicate dose response titrations in DMSO, final assay 0.8% DMSO (v/v)) for 3-5 h in 50 mM Tris (pH 8.5), 1 mM DTT, 0.07 mM Brij-35, 0.1% BSA, and 0.8% DMSO in a total volume of 12.5 μl. Reaction was initiated with biotinylated H3 substrate peptide (H2N-[…](Kme1)[…]-NTPEGBiot) as a 2 μM stock in 12.5 μl of buffer and allowed to react at room temperature for 18-22 h. Quenching was accomplished by addition of 20 μl of STOP solution (50 mM Tris (pH 8.5), 200 mM EDTA, 2 mM SAH). 35 μl of the quenched solution was transferred to streptavidin coated FlashPlates (PerkinElmer), incubated 1-2 h, washed, and read in a TopCount Reader (PerkinElmer). IC50s were calculated in Genedata Screener using non-linear least square four parameter fits, where the four parameters were IC50, Hill slope, pre-transitional baseline (0% INH), and post-transitional baseline (100% INH).
IC50 values are reported as follows: “A” indicates an IC50 value of less than 0.5 nM; “B” indicates an IC50 value of 0.5 nM to 5 nM; “C” indicates an IC50 value of greater than 5 nM for each enzyme; and “ND” is not determined.

[1] = system: H3K27me3 mark in HeLa cells (EZH2); assay: H3K27me3 Alpha Hela Assay (AlphaLISA); type: cell-based
Protocol: H3K27me3 Alpha Hela Assay (AlphaLISA). Ten different doses of each test compound (in a series of 3-fold dilutions) were plated in duplicate 384-well tissue culture treated plates (Catalog #6007680; Perkin Elmer, Waltham, Mass.). Hela cells grown in culture were trypsinized and counted using a Countess® cell counter (Catalog #C10281; Life Technologies, Grand Island, N.Y.). Cell were diluted to 67,000 cells per mL in 10% DMEM (Catalog #10569-010 Life Technologies, Grand Island, N.Y.) and 15 μL (1,000 cells) were plated into each well using the Biotek MicroFlo™ Select Dispenser (BioTek Instruments, Inc. Vermont, USA),) of the 384-well plate. Plates were incubated at 37° C./5% CO2 for 72 hrs. One of the duplicate plates was processed for HeLa assay and the other for viability.
5 μL of Cell-Histone Lysis buffer (1×) (Catalog #AL009F1 Perkin Elmer; Waltham, Mass.) per well was added to the plate processed for AlphaLISA and the plate was incubated at RT for 30 minutes on a plate shaker with low speed (Model #4625-Q Thermo Scientific; Waltham, Mass.). Then, 10 μL per well Histone Extraction buffer (catalog #AL009F2; Perkin Elmer; Waltham, Mass.) was added and the plate further incubated at RT for 20 min on plate shaker with low speed. Next, 10 μL of 5× mix of anti-K27me3 acceptor beads plus Biotinylated anti-Histone H3 (C-ter) Antibody (diluted to 3 nM final) (Catalog #AL118 Perkin Elmer; Waltham, Mass.) was added in each well. Dilution of the acceptor beads and anti-Histone H3 was done in 1× Histone Detection buffer (Catalog #AL009F3 Perkin Elmer; Waltham, Mass.) which was produced by diluting the 10× stock provided. The plate was sealed with an aluminum plate sealer and incubated at 23° C. for 60 min. Next, 10 μL 5× solution of Streptavidin Donor beads were added (Catalog #6760002 Perkin Elmer; Waltham, Mass.) (20 μg/mL final in 1× Histone Detection Buffer), =plate was sealed with Aluminum plate sealer and incubated at 23° C. for 30 min. The plates were then read using an EnVision-Alpha Reader (model #2104 Perkin Elmer; Waltham, Mass.).
Data from both assays was analyzed using Genedata (Basel, Switzerland). Data files were imported to Genedata and assay conditions were specified. A unique Analysis ID was created and the data files analysed to measure dose-dependent inhibition of H3K27me3 mark and cell viability respectively. Readout of DMSO wells were used to normalize the data. Resulting curves were fitted using Smart fit application (Genedata; Basel, Switzerland). The data was checked for quality, validated and integrated in excel format using Stardrop (Optibruim, Cambridge, UK).
EC50 values are reported as follows: “A” indicates an EC50 value of less than 10 nM; “B” indicates an EC50 value of 10 nM to 100 nM; “C” indicates an EC50 value of greater than 100 nM; and “ND” is not determined.

[2] = EZH2 (IC50), 30 pM PRC2 containing wt EZH2; 3-5 h pre-incubation
[3] = Homo sapiens, HeLa, 72 h, HeLa cells, 72 hrs, read-out: EZH2 Cell H3K27me3 Alpha HeLa (EC50 K27me3)
[4] = 30 pM PRC2 containing wt EZH2; 3-5 h pre-incubation; read-out: EZH2 (IC50)
[5] = HeLa cells, 72 hrs, read-out: EZH2 Cell H3K27me3 Alpha HeLa (EC50 K27me3)
[6] = Homo sapiens, HeLa, HeLa cell assay, Table 3 classes, read-out: EC50 Cellular Activity
[7] = HeLa cell assay, Table 3 classes, read-out: EC50 Cellular Activity

Sequence of PRC2 containing wt EZH2 (Q15910 whole entry): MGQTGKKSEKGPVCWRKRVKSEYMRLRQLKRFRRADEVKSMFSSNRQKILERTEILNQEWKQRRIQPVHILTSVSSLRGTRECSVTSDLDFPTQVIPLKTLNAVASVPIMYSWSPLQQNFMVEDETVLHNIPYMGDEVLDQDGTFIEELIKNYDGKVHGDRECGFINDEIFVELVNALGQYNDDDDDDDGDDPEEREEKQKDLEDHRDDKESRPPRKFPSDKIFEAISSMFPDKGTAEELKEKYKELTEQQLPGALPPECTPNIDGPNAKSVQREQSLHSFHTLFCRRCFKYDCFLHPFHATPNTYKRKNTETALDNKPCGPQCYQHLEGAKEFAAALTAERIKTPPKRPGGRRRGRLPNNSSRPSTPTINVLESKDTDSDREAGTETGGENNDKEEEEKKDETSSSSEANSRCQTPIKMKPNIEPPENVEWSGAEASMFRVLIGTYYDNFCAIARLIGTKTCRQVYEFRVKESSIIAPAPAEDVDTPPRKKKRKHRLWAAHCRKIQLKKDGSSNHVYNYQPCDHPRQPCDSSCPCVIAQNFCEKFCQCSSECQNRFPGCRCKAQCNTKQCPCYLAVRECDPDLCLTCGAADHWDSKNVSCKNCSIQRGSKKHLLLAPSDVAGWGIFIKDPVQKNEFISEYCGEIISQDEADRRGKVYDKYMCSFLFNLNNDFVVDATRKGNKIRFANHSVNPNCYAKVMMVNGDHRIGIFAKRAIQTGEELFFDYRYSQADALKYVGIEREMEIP
Sequence of PRC2 containing wt EZH2 (O75530 whole entry partner): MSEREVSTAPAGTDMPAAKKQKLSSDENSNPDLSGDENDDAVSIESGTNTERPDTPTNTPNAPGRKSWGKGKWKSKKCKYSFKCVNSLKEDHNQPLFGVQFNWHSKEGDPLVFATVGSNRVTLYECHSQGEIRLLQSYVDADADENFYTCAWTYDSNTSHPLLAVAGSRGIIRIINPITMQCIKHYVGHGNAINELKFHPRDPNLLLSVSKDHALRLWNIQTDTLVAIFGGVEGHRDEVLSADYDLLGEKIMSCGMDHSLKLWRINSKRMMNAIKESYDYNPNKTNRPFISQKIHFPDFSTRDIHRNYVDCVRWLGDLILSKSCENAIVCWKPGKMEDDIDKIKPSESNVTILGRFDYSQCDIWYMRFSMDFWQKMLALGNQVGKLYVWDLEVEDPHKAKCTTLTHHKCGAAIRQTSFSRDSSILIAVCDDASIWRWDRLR
Sequence of PRC2 containing wt EZH2 (Q15022 whole entry partner): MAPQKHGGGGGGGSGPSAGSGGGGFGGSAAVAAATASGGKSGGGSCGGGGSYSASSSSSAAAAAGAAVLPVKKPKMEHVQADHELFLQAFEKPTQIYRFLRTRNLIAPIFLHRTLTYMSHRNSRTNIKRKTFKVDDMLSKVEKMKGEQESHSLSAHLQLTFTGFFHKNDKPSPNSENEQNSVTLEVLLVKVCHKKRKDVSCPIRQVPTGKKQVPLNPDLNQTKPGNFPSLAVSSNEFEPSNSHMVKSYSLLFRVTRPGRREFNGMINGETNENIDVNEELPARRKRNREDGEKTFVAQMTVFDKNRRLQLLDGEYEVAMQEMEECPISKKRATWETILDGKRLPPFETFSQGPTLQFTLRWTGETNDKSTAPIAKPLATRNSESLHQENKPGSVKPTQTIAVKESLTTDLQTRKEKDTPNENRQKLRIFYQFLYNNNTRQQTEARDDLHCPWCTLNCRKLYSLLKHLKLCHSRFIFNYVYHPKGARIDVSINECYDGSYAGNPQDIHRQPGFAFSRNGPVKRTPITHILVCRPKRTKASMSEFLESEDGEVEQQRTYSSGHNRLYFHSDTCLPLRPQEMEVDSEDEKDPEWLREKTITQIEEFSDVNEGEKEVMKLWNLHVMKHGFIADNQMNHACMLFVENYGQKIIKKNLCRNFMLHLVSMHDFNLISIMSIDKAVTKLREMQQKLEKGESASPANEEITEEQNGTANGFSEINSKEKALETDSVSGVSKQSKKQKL
Sequence of PRC2 containing wt EZH2 (Q09028 whole entry partner): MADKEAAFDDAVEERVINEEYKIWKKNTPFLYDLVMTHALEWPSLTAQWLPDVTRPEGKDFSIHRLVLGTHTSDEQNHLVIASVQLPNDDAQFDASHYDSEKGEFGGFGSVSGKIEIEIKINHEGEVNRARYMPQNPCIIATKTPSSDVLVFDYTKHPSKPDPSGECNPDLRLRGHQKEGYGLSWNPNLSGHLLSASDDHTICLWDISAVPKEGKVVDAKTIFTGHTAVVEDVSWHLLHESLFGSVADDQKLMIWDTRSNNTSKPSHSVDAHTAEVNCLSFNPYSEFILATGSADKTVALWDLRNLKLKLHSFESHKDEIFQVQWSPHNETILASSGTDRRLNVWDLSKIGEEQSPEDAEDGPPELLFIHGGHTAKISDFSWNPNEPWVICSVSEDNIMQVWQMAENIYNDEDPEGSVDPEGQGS
Sequence of PRC2 containing wt EZH2 (Q6ZN18 whole entry partner): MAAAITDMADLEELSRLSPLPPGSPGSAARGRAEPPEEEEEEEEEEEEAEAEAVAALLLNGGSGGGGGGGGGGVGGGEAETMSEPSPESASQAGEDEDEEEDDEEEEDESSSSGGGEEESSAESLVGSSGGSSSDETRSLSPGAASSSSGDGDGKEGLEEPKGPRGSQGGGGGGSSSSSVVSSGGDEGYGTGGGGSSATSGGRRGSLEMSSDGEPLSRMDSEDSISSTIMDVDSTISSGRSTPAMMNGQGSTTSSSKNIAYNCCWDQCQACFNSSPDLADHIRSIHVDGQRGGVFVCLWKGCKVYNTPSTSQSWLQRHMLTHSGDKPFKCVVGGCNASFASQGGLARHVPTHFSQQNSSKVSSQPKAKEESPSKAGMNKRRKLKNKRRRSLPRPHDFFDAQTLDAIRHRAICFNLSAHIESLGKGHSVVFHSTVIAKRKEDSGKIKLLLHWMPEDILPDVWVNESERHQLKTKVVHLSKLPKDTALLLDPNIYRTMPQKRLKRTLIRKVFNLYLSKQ

## COC1CC(N2CCC([C@@H](C)n3c(C)c(C(=O)NCc4c(SC)cc(C)[nH]c4=O)c4cccnc43)CC2)C1 (stereo partly drawn) [Example 141, (R)-1-(1-(1-(3-methoxycyclobutyl)piperidin-4-yl)ethyl)-2-methyl-N-((6-methyl-4-(methylthio)-2-oxo-1,2-dihydropyridin-3-yl)methyl)-1H-pyrrolo[2,3-b]pyridine-3-carboxamide]
PRC2 containing wt EZH2; [2]
  IC50: < 0.5 nM
[1]; [3]
  EC50: 10 to 100 nM

## COC1CN(C2CCC([C@@H](C)n3c(C)c(C(=O)NCc4c(SC)cc(C)[nH]c4=O)c4cc(F)cnc43)CC2)C1 (single isomer, unassigned) [94 (isomer 1)]
PRC2 containing wt EZH2; [4]
  IC50: < 0.5 nM
[1]; [5]
  EC50: < 10 nM

## CSc1cc(C)[nH]c(=O)c1CNC(=O)c1c(C)n([C@H](C)C2CCC(N3CC(OC(F)(F)F)C3)CC2)c2ccccc12 (single isomer, unassigned) [21 (isomer 2)]
PRC2 containing wt EZH2; [4]
  IC50: < 0.5 nM
[1]; [5]
  EC50: 10 to 100 nM

## CSc1cc(C)[nH]c(=O)c1CNC(=O)c1c(C)n([C@H](C)C2CCC(N3CC(OC(F)F)C3)CC2)c2c(F)cccc12 (single isomer, unassigned) [121 (isomer 2)]
PRC2 containing wt EZH2; [4]
  IC50: 0.5 to 5 nM
[1]; [5]
  EC50: > 100 nM

## CSc1cc(C)[nH]c(=O)c1CNC(=O)c1c(C)n([C@H](C)C2CCC(N3CC(F)C3)CC2)c2ccccc12 (single isomer, unassigned) [24 (isomer 2)]
PRC2 containing wt EZH2; read-out: EZH2 (IC50); 30 pM PRC2 containing wt EZH2; 3-5 h pre-incubation
  IC50: < 0.5 nM
[1]; [5]
  EC50: < 10 nM

## COC1CCC([C@@H](C)n2c(C)c(C(=O)NCc3c(SC)cc(C)[nH]c3=O)c3ccccc32)CC1 (single isomer, unassigned) [drawing 249]
[1]; [6]
  EC50: < 5 nM

## CSc1cc(C)[nH]c(=O)c1CNC(=O)c1c(C)n([C@H](C)C2CCC(NC3COC3)CC2)c2ncccc12 (single isomer, unassigned) [62 (isomer 2)]
PRC2 containing wt EZH2; [4]
  IC50: 0.5 to 5 nM
[1]; HeLa cells, 72 hrs, listed as 62, read-out: EZH2 Cell H3K27me3 Alpha HeLa (EC50 K27me3)
  EC50: > 100 nM

## CSc1cc(C)[nH]c(=O)c1CNC(=O)c1c(C)n([C@H](C)C2CCN(CC(F)(F)F)CC2)c2cccc(C#N)c12 [Example 97, (R)-4-cyano-2-methyl-N-((6-methyl-4-(methylthio)-2-oxo-1,2-dihydropyridin-3-yl)methyl)-1-(1-(1-(2,2,2-trifluoroethyl)piperidin-4-yl)ethyl)-1H-indole-3-carboxamide]
PRC2 containing wt EZH2; [4]
  IC50: > 5 nM
[1]; [3]
  EC50: > 100 nM

## CSc1cc(C)[nH]c(=O)c1CNC(=O)c1c(C)n([C@H](C)C2CCN(CC(F)(F)F)CC2)c2ncccc12 [Example 25, (R)-2-methyl-N-((6-methyl-4-(methylthio)-2-oxo-1,2-dihydropyridin-3-yl)methyl)-1-(1-(1-(2,2,2-trifluoroethyl)piperidin-4-yl)ethyl)-1H-pyrrolo[2,3-b]pyridine-3-carboxamide]
PRC2 containing wt EZH2; [2]
  IC50: < 0.5 nM
[1]; [3]
  EC50: < 10 nM

## CSc1cc(C)[nH]c(=O)c1CNC(=O)c1c(C)n([C@H](C)C2CCC(OC(C)=O)CC2)c2ccccc12 (single isomer, unassigned) [134 (isomer 2)]
PRC2 containing wt EZH2; [4]
  IC50: < 0.5 nM
[1]; [5]
  EC50: < 10 nM

## CSc1cc(C)[nH]c(=O)c1CNC(=O)c1c(C)n([C@H](C)C2CCC(N3CC(OC(F)F)C3)CC2)c2cc(F)ccc12 (stereo partly drawn) [Example 29, 1-((R)-1-(4-(3-(difluoromethoxy)azetidin-1-yl)cyclohexyl)ethyl)-6-fluoro-2-methyl-N-((6-methyl-4-(methylthio)-2-oxo-1,2-dihydropyridin-3-yl)methyl)-1H-indole-3-carboxamide]
PRC2 containing wt EZH2; [4]
  IC50: < 0.5 nM
[1]; [3]
  EC50: < 10 nM

## CSc1cc(C)[nH]c(=O)c1CNC(=O)c1c(C)n([C@H](C)[C@H]2CCN(C3CC3)C[C@H]2F)c2ccccc12 [Example 56, 1-((R)-1-((3S,4R)-1-cyclopropyl-3-fluoropiperidin-4-yl)ethyl)-2-methyl-N-((6-methyl-4-(methylthio)-2-oxo-1,2-dihydropyridin-3-yl)methyl)-1H-indole-3-carboxamide]
PRC2 containing wt EZH2; [2]
  IC50: < 0.5 nM
[1]; [3]
  EC50: < 10 nM

## CSc1cc(C)[nH]c(=O)c1CNC(=O)c1c(C)n([C@H](C)C2CCC(N3CC(F)(F)C3)CC2)c2ccccc12 (single isomer, unassigned) [23 (isomer 1)]
PRC2 containing wt EZH2; [2]
  IC50: 0.5 to 5 nM
[1]; [3]
  EC50: 10 to 100 nM

## COC1(C)CN(C2CCC([C@@H](C)n3c(C)c(C(=O)NCc4c(SC)cc(C)[nH]c4=O)c4ccccc43)CC2)C1 (single isomer, unassigned) [90 (isomer 1)]
PRC2 containing wt EZH2; [4]
  IC50: < 0.5 nM
[1]; [5]
  EC50: 10 to 100 nM

## CSc1cc(C)[nH]c(=O)c1CNC(=O)c1c(C)n([C@H](C)C2CCC(N3CC(C#N)C3)CC2)c2ccccc12 (single isomer, unassigned) [138 (isomer 1)]
PRC2 containing wt EZH2; [2]
  IC50: 0.5 to 5 nM
[1]; [3]
  EC50: 10 to 100 nM

## CSc1cc(C)[nH]c(=O)c1CNC(=O)c1c(C)n([C@H](C)C2OCC(N3CCC3(C)C)CO2)c2ccccc12 (single isomer, unassigned) [15 (isomer 1)]
PRC2 containing wt EZH2; [2]
  IC50: < 0.5 nM
[1]; [5]
  EC50: < 10 nM

## CSc1cc(C)[nH]c(=O)c1CNC(=O)c1c(C)n([C@H](C)C2CCC(O)CC2)c2ncccc12 (single isomer, unassigned) [36 (isomer 1)]
PRC2 containing wt EZH2; [2]
  IC50: < 0.5 nM
[1]; [3]
  EC50: 10 to 100 nM

## Cc1cc(Cl)c(CNC(=O)c2c(C)n([C@H](C)C3OCC(NC(C)(C)C)CO3)c3ccccc23)c(=O)[nH]1 (single isomer, unassigned) [drawing 222]
[1]; [7]
  EC50: 5 to 25 nM

## COC1CN(C2CCC([C@@H](C)n3c(C)c(C(=O)NCc4c(SC)cc(C)[nH]c4=O)c4cccnc43)CC2)C1 (single isomer, unassigned) [drawing 260]
[1]; [7]
  EC50: > 125 nM

## CCOC1CN(C2CCC([C@@H](C)n3c(C)c(C(=O)NCc4c(SC)cc(C)[nH]c4=O)c4cccnc43)CC2)C1 (single isomer, unassigned) [drawing 262]
[1]; [7]
  EC50: 25 to 125 nM

## CSc1cc(C)[nH]c(=O)c1CNC(=O)c1c(C)n([C@H](C)C2CCC(N3CC(OC(F)F)C3)CC2)c2ccccc12 (single isomer, unassigned) [drawing 253]
[1]; [7]
  EC50: 5 to 25 nM

## CSc1cc(C)[nH]c(=O)c1CNC(=O)c1c(C)n([C@H](C)C2CCC(NC3(C)CCOC3)CC2)c2ccccc12 (single isomer, unassigned) [drawing 270]
[1]; [7]
  EC50: 25 to 125 nM

## COc1cnc2c(c1)c(C(=O)NCc1c(SC)cc(C)[nH]c1=O)c(C)n2[C@H](C)C1CCC(N2CC(OC(F)F)C2)CC1 (single isomer, unassigned) [125 (isomer 2)]
PRC2 containing wt EZH2; [4]
  IC50: < 0.5 nM

## COc1cc(C)[nH]c(=O)c1CNC(=O)c1c(C)n([C@H](C)C2CCOCC2)c2ccccc12
[1]; [6]
  EC50: 25 to 125 nM

## Cc1cc(C)c(CNC(=O)c2c(C)n([C@H](C)C3CCOCC3)c3ccccc23)c(=O)[nH]1
[1]; [6]
  EC50: 25 to 125 nM
